Source: US10179790B2 (THOMAS HELLEDAYS STIFTELSE FOR MEDICINSK FORSKNING, priority 2014, dated 2019)

Key:
MTH1 = MTH1 (Homo sapiens, UniProt P36639); test: MTH1 enzymatic assay and IC50 value determination (malachite green, 96- and 384-well format); assay type: biochemical; conditions: hydrolysis of dGTP (100 μM), MTH1 6 nM, pyrophosphatase-coupled malachite green, 15 minutes at 22° C.
In short: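 MTH1 (6 nM) hydrolysed dGTP (100 μM) for 15 min at 22 °C in Tris-acetate buffer with Mg2+, DTT, Tween 20 and excess pyrophosphatase, 1% DMSO. Pi detected with malachite green at 630 nm. IC50 from nonlinear 4-parameter fit of 11–12-point dilution series.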

cancer cell = test: Cell viability assay (resazurin); assay type: cell-based; conditions: 72 h; 3 days with compound, resazurin fluorescence; cell line not named
In short: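 Cells in DMEM GlutaMAX or line-appropriate medium are exposed to compound for 3 days at 37 °C, 5% CO2. Viability is read as resazurin fluorescence (Ex544/Em590) after 2 h incubation. In the 384-well format, cells are seeded onto 11 pre-dispensed concentrations (final DMSO <1%) and read after 3 h resazurin.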

## COCCNS(=O)(=O)c1ccc(CCNc2cc(-c3cccc(Cl)c3C)nc(N)n2)cc1 [Example 208, 4-(2-{[2-amino-6-(3-chloro-2-methylphenyl)pyrimidin-4-yl]amino}ethyl)-N-(2-methoxyethyl)benzene-1-sulfonamide]
MTH1
  IC50: < 200 nM
Cancer cell
  IC50: < 500 nM

## Cc1c(Cl)cccc1-c1cc(NCCc2ccc(S(=O)(=O)NC3COC3)cc2)nc(N)n1 [Example 209, 4-(2-{[2-amino-6-(3-chloro-2-methylphenyl)pyrimidin-4-yl]amino}ethyl)-N-(oxetan-3-yl)benzene-1-sulfonamide]
MTH1
  IC50: < 200 nM
Cancer cell
  IC50: < 500 nM

## Cc1c(Cl)cccc1-c1cc(NCCc2ccc(S(=O)(=O)NC3CCOCC3)cc2)nc(N)n1 [Example 210, 4-(2-{[2-amino-6-(3-chloro-2-methylphenyl)pyrimidin-4-yl]amino}ethyl)-N-(oxan-4-yl)benzene-1-sulfonamide]
MTH1
  IC50: < 200 nM
Cancer cell
  IC50: < 500 nM

## C#CCN(C)C(=O)c1ccc(CCNc2cc(-c3cccc(Cl)c3C)nc(N)n2)cc1 [Example 211, 4-(2-{[2-amino-6-(3-chloro-2-methylphenyl)pyrimidin-4-yl]amino}ethyl)-N-methyl-N-(prop-2-yn-1-yl)benzamide]
MTH1
  IC50: < 200 nM
Cancer cell
  IC50: < 500 nM

## C#Cc1ccc(CCNc2cc(-c3cccc(Cl)c3C)nc(N)n2)cc1 [Example 212, 6-(3-chloro-2-methylphenyl)-N4-[2-(4-ethynylphenyl)ethyl]pyrimidine-2,4-diamine]
MTH1
  IC50: < 200 nM
Cancer cell
  IC50: < 500 nM

## Cc1c(Cl)cccc1-c1cc(NCCOc2ccc(S(N)(=O)=O)cn2)nc(N)n1 [Example 213, 6-(2-(2-amino-6-(3-chloro-2-methylphenyl)pyrimidin-4-ylamino)ethoxy)pyridine-3-sulfonamide]
MTH1
  IC50: < 200 nM
Cancer cell
  IC50: < 500 nM

## Cc1c(Cl)cccc1-c1cc(NCCOc2ccc(S(C)(=O)=O)cn2)nc(N)n1 [Example 214, 6-(3-Chloro-2-methylphenyl)-N4-(2-(5-(methylsulfonyl)pyridin-2-yloxy)ethyl)pyrimidine-2,4-diamine]
MTH1
  IC50: < 200 nM
Cancer cell
  IC50: < 500 nM
